Experimental findings from PubChem BioAssay (NCI) are described below.

The subject of the assay is SK-MEL-5 melanoma. In words: growth of human tumour cells (NCI), 48 h.

Where “and” joins values, the source holds several entries; their conditions need not be identical. Equal entries are not always repeated.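 Method: 48-hour compound exposure of cells in 96-well plates, five concentrations, linear interpolation of endpoints. GI50 = concentration required for 50% inhibition of growth. At the TGI there is no net growth.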 Where a SMILES comes first, the peptide text is derived from it. [ ]: non-standard residue; d: D form. The star is where a group is joined. ξ: configuration not given here. X37 = O=C(OCc1ccccc1)[C@@H]1CCC[C@H]1N*; Fmoc = O=C(OCC1c2ccccc2-c2ccccc21)*; ξW = NC(Cc1c[nH]c2ccccc12)C(=O)O; ξF = NC(Cc1ccccc1)C(=O)O; Boc = CC(C)(C)OC(=O)*; ξK = NCCCCC(N)C(=O)O; ξT = CC(O)C(N)C(=O)O; tBu = CC(C)(C)*

Take `COCOc1cc(OC)ccc1C=O`: the TGI was > 100 µM.

`COc1cc(O)c(C(=O)/C=C/c2ccc(O)cc2)cc1Oc1ccc(C(=O)/C=C/c2ccc(O)cc2)c(O)c1`: the TGI was 4.19 µM.

Turning to `Cc1cc(SCC(=O)c2ccc(Br)cc2)cc(C)[o+]1`, the TGI was found to be 35.9 µM.

Turning to `COc1ccccc1NC(=S)N/N=C(/c1ccccc1)c1ccccn1`, the TGI was 6.44 µM.

Turning to `COC(=O)CCCc1ccc2c(c1)CCC2`, the TGI is > 100 µM.

`COc1ccc2c(c1)CCC(CN1CCN(CCOC(c3ccc(F)cc3)c3ccc(F)cc3)CC1)=C2` yielded a TGI of 18.5 µM.

Turning to `CC(C)(C)[C@@H]1NC(=O)CN1C(=O)OCc1ccccc1`, the TGI is > 100 µM.

Regarding `O=C(/C=C1\N=C(c2ccccc2)N(c2ccc3c(c2)Sc2cc(N4C(=O)/C(=C/C(=O)/C=C/c5ccccc5)N=C4c4ccccc4)ccc2N3)C1=O)/C=C/c1ccccc1`, the TGI was found to be 33.5 µM.

Turning to `CCCCc1ccc(N2C(=O)c3cc(C)cnc3S2(=O)=O)cc1`, the TGI is > 100 µM.

Turning to `COc1ccc(N(C(=O)OC(C)(C)C)[C@@H]2C(C)=C[C@H]([S@@](=O)c3ccc(C)cc3)[C@@H]3C(=O)N(C)C(=O)[C@@H]32)cc1`, the TGI worked out at 43.7 µM.

For `CC1(C)OC1CC/C(=C/CBr)CBr` (stereo not given), the TGI worked out at 27.5 µM.

Consider `CC(=O)C1=CC=C/C1=N\Nc1ccccc1`, for which the TGI is 29.8 µM.

On to `CCC1OC2C(CC=C(C)C)=C3OC(C)(O)C(C)(CC)C(O)C3=C3OC(=O)C=C1C32` (stereo not given), for which the TGI was > 100 µM.

For the compound `COc1cccc(-n2nnc3c(N)nc(N)nc32)c1`, the TGI is > 100 µM.

For `CCOC(=O)C1(C(=O)OCC)C[C@H]2CON=C2[C@@H]1c1ccc(C(F)(F)F)cc1`, the TGI was > 100 µM.

Consider `CCC(C#N)N(Cc1cccc(CN(C(C)=O)C(C#N)CC)c1)C(C)=O` (stereo not given), for which the TGI was > 100 µM.

In turn, `CCCCc1cc2c(cc1O)CCC1C2CC[C@@]2(C)C1CC[C@@H]2O` (stereo not given in full) gave a TGI of 39.2 µM.

On to `OC1(c2ccc(Cl)cc2)c2ccccc2C2=Nc3ccccc3CN21` (stereo not given), for which the TGI was > 100 µM.

Regarding `CC1CCN(c2nnc(Cl)cc2C(=O)c2ccccc2)CC1`, the TGI was 31.1 µM.

Regarding `Cc1cn2c(/C=C3/C(=O)Nc4ccccc43)c(-c3ccccc3)nc2s1`, the TGI was > 100 µM.

Consider `C=C1C(=O)O[C@H]2C1C[C@@H](O)[C@@]1(C)OC1CC[C@@]1(C)O[C@H]21` (stereo not given in full), for which the TGI stood at 29.6 µM.

Consider `COC(=O)CSc1[nH]c2nc(C)nc(Nc3ccccc3)c2c1C#N`, for which the TGI was > 10 µM.

Compound `c1ccc(COc2nc3ccc(C45CC6CC(CC(C6)C4)C5)cc3[nH]2)cc1` yielded a TGI of 14.6 µM.

Turning to `COc1ccc(NS(=O)C2CCCCC2)cc1` (stereo not given), the TGI is > 100 µM.

In turn, `CCOC(=O)c1ccc(N=C/C=C(\Nc2ccc(C(=O)OCC)cc2)c2ccc3ccccc3c2)cc1` gave a TGI of 34.7 µM.

Compound `CC(C)C[C@H](NC(=O)[C@@H](Cc1cccc2ccccc12)NC(=O)N1CCOCC1)B(O)O` displayed a TGI of 9.24 µM.

On to `CC1(C(O)c2ccccc2)CN(C(C)(C)C)C(=O)/C1=C\Sc1ccccc1` (stereo not given), for which the TGI is > 100 µM.

On to `CCN(CC)P1(=S)Oc2ccc3ccccc3c2-c2c(ccc3ccccc23)O1`, for which the TGI was > 100 µM.

`CCOC(=O)c1c(OCC)[nH]c(=O)c(C(c2ccc(F)cc2)c2c(O)c(C(=O)OCC)c(OCC)[nH]c2=O)c1O`: the TGI was found to be 25.9 µM.

On to `Cc1ccc(S(=O)/C=C(\NC(=O)OCc2ccccc2)C(F)(F)F)cc1` (stereo not given), for which the TGI was > 100 µM.

Regarding `Cc1cc2nc3c(C#N)c(-c4ccccc4)/c(=C\Nc4cccc(C(F)(F)F)c4)c(=O)n3c2cc1C`, the TGI was > 100 µM.

In the case of `CC(=O)OCc1ccc(-c2nc(C#N)c(N)o2)o1`, the TGI is > 10 µM.

For `COc1ccc2cc(C(=O)NCCc3ccccc3)ccc2c1OC`, the TGI is > 100 µM.

For `N=C(/C=C/c1ccc(-c2cn3cc(/C=C/C(=N)N4CCOCC4)ccc3n2)cc1)N1CCOCC1`, the TGI was > 100 µM.

Turning to `CC(=O)OCC1OC(n2c(-c3ccccc3)c(N=Nc3ccc(Cl)cc3)c(C)c(C#N)c2=S)C(OC(C)=O)C(OC(C)=O)C1OC(C)=O` (stereo not given), the GI50 was 4.01 µM and 10.4 µM; the TGI was 14.4 µM and 54.8 µM.

As for `Cc1ccc(S(=O)(=O)OC2CN3CCC2CC3)cc1` (stereo not given), the TGI was > 100 µM.

In the case of `CCc1nnc2sc(-c3ccc(-c4ccc(Cl)cc4Cl)o3)nn12`, the TGI was > 100 µM.

Consider `CC(C)=NN/C(=N\S(=O)(=O)c1cc(Cl)c(Oc2ccc([N+](=O)[O-])cc2Cl)c(Cl)c1)Nc1ccc(Cl)cc1`, for which the TGI was > 100 µM.

For `C(=N\NC1=NCCCN1)/c1ccc(-c2cn3cc(/C=N/NC4=NCCCN4)ccc3n2)cc1`, the TGI is > 100 µM.

`Cc1ccc(Nc2ncnc3sc(SCc4ccccc4)nc23)cc1`: the TGI is > 100 µM.

In turn, `C=C(C)C1CC2=C(C(=O)OC)C=C(O2)C(C(=C)C)[C@@H]2OC(=O)/C(=C\C1O)[C@H]2N(C)C` (stereo not given in full) had a TGI of 27.9 µM.

On to `CC(C)(C)[Si](C)(C)OCC1OC(n2ccc(=O)[nH]c2=O)C(O[Si](C)(C)C(C)(C)C)/C1=N/O` (stereo not given), for which the TGI came out at 6.07 µM.

`Fc1ccc(C(=NCc2ccccc2)N2CCOCC2)cc1`: the TGI is > 100 µM.

For `COC(=O)c1nc2c(C)c(O)c(O)c([C@H](C)CCC=C(C)C)c2o1`, the TGI was found to be 28.4 µM.

In the case of `S=C1c2cc(Cl)ccc2NC(=NC2CCCC2)C2CSCN12` (stereo not given), the TGI is > 100 µM.

With `O=[N+]([O-])c1ccccc1S(=O)(=O)N1CCCc2cc(Cl)ccc21`, the TGI was > 100 µM.

Take `C[N+](C)(C)CCCCCc1c2nc(c(CCCCC[N+](C)(C)C)c3ccc([nH]3)c(CCCCC[N+](C)(C)C)c3ccc([nH]3)c(CCCCC[N+](C)(C)C)c3nc1C=C3)C=C2`: the TGI was > 100 µM.

Consider `CCOC(=O)c1cc(-c2ccc(OC)c(OC)c2)cn1C`, for which the TGI was > 10 µM.

Turning to `CC1OC(OC2C(CO)OC(O[C@H]3CC[C@@]4(C)C(=CC[C@H]5[C@@H]6C[C@@H]7O[C@](O)(CC[C@@H](C)COC8OC(CO)C(O)C(O)C8O)[C@@H](C)[C@@H]7[C@@]6(C)CC[C@@H]54)C3)C(OC3OC(C)C(O)C(O)C3O)C2O)C(O)C(O)C1O` (stereo not given in full), the TGI turned out to be 11.6 µM.

`COc1ccc(OC)c2c1C[C@@H]1C(C#N)N3[C@H](Cc4c(OC)ccc(OC)c4[C@@H]3C)C(=O)N1[C@H]2C` (stereo not given in full) yielded a TGI of 3.25 µM.

`Cc1cccc(Nc2cn(CCOc3ccccc3)c(=O)[nH]c2=O)c1` gave a TGI of 70.2 µM.

With `CC(OC(C)(C)C)C(NC(=O)C(CCCCNC(=O)OC(C)(C)C)NC(=O)C(Cc1c[nH]c2ccccc12)NC(=O)C(Cc1ccccc1)NC(=O)OCC1c2ccccc2-c2ccccc21)C(=O)NC(Cc1ccccc1)C(=O)N[C@@H]1CCC[C@H]1C(=O)OCc1ccccc1` (stereo not given in full) (Fmoc-[ξF][ξW][ξK](Boc)[ξT](tBu)[ξF]-X37), the TGI is > 100 µM.

For `CC(C)(C)NCC(O)COc1cccc2[nH]c(C#N)cc12` (stereo not given), the TGI is > 100 µM.

`c1ccc(/C(=N/Nc2cnccn2)c2ncccn2)cc1`: the TGI was > 100 µM.

With `C#CCNC(Cc1ccccc1)C(=O)O` (stereo not given), the TGI was > 100 µM.

With `NS(=O)(=O)c1ccc(CNC(=S)NC(=O)Nc2ccc(Cl)c(Cl)c2)cc1`, the TGI is 33 µM.

Take `Cc1nc2c(=O)[nH]c(=O)nc-2n(CCO)c1C`: the TGI was > 100 µM.

For `COC(=O)c1ccc(/C=C/C2=CC(=O)C=CC2=O)cc1`, the TGI was > 52 µM.

`COC(=O)c1c(C)nc(C)c(N=O)c1-c1ccccc1C(F)(F)F` showed a TGI of 89.4 µM.

Turning to `CC(=O)c1ccc2c(c1)CC1(C2)Cc2cc3c(cc2C1)C(=O)CC3` (stereo not given), the TGI worked out at 11.9 µM.

Take `CC(=O)NC1C(OCC(=O)NC(C)C(=O)NC(CCC(=O)NCCCCCNc2ccc([N+](=O)[O-])c3[nH]c4ccccc4c(=O)c23)C(N)=O)C(O)C(CO)OC1(C)OCc1ccccc1` (stereo not given): the TGI is > 50 µM.

For the compound `CC1(C)COC(c2cccc(C3=NC(C)(C)CO3)c2)=N1`, the TGI was > 100 µM.

In the case of `CCC1=C(C)C2=NC1=CC1=NC(=C(CC)/C1=C/O)C=C1N=C3C(=C1C)C(=O)C(C(=O)OC)C3=C1NC(=C2)C(C)C1CCC(=O)OC` (stereo not given), the TGI is > 100 µM.

Regarding `CCCCN(CCCC)CC(=O)c1ccc2cc(Cl)c3ccccc3c2c1`, the TGI is 34.6 µM.
